In PMC6920777, “Pharmacokinetic Alteration of Paclitaxel by Ferulic Acid Derivative” (Pharmaceutics, 2019):
Where two headings read alike, the source gives them in different places.

Legend:
MCF-7/ADR cells [1] = assay: Toxic effect of each derivative and VER alone (cell survival); format: cell-based; conditions: Homo sapiens, NCI/ADR-RES, 2 h incubation, read-out: cell survival ratio; for viability at 5 µM: mean (SD); for viability at 10 µM / viability at 25 µM / viability at 50 µM / viability at 100 µM: mean
Method: The effect of eight FA derivatives on cytotoxicity was studied in P-gp overexpressed human breast cancer cells (MCF-7/ADR) using the SRB assay. The details of the cell culture condition and the assay method were presented in our previous reports. […] The assay was performed in triplicate. […]
Data are presented as mean ± SD.
The numerical data were represented the cell survival ratio.

[2] = Pharmacokinetic study of oral PTX alone or co-administered with compound 5c; format: in vivo, male Sprague-Dawley rats
Method: The pharmacokinetic (PK) study was performed using male Sprague-Dawley rats (6 weeks old and 200 g–235 g) commercially available from Orient Bio (Seongnam, Korea). All animal procedures were approved by the Institutional Animal Care and Use Committee of Ewha Womans University (No. 2012-01-019, approved on 3 April 2012), Republic of Korea.
Rats were divided into the following 4 groups: Oral administration (PO) of PTX (25 mg/kg) alone and co-administration of PTX (25 mg/kg) with compound 5c at three different doses (0.5, 2 and 5 mg/kg). Each group had 5 rats except for a group of 2 mg/kg dose (n = 4). The blood samples (0.2 mL) were collected from the common carotid artery at 0, 0.25, 0.5, 1, 2, 3, 4, 6, 8, 10 and 24 h.
PTX concentrations in rat plasma were analyzed by Agilent HP1100 series system using a Capcell-pak C18 MG120 column (3 mm × 250 mm, 5 µm, Shiseido, Tokyo, Japan). The samples were eluted with mobile phase composed of acetonitrile and 0.1% phosphoric acid (1/1, v/v) at a flow rate of 0.5 mL/min for 30 min and detected at a wavelength of 227 nm. The HPLC-UV method was validated by FDA guidelines as follows: Specificity (PTX: 14.8 min; internal standard: 26.7 min), linearity over the concentration range between 0.01 and 10 µg/mL, lower limit of quantification (0.01 µg/mL) and intra-/inter-day precision and accuracy (2.4–9.1% and 92.1–102.7%, respectively). All other details for sample preparation and quantification of PTX concentrations in rat plasma were reported previously.
The following PK parameters of PTX after oral single dosing to rats were estimated by non-compartmental analysis using WinNonlin® Professional version 5.2 software (Pharsight Corporation, Mountain View, CA, USA): The area under the plasma concentration-time curve from 0 h to infinity (AUCinf), elimination half-life (t1/2), apparent volume of distribution after oral single dosing (Vz/F), oral clearance (Cl/F), maximum plasma concentration (Cmax) and the time required to reach Cmax (Tmax). The relative bioavailability (RB, %) of PTX was calculated with the following formula: RB ( % )=AUCinf po co−administraion/AUCinf po control×100
AUCinf po control is the AUCinf obtained from oral single administration of PTX alone, and AUCinf po co-administration is the AUCinf obtained from oral single co-administration of PTX and compound 5c.

MCF-7/ADR cells [3] = assay: Cytotoxicity of DNM with FA derivatives, SRB assay; format: cell-based, human; conditions: for IC50 of DNM as fraction of negative control (DNM alone) value: derivative 100 µM
Method: The effect of eight FA derivatives on cytotoxicity was studied in P-gp overexpressed human breast cancer cells (MCF-7/ADR) using the SRB assay. The details of the cell culture condition and the assay method were presented in our previous reports. […] The assay was performed in triplicate.

MCF-7/ADR cells [4] = assay: [3H]-daunomycin efflux study; format: cell-based, human
Method: (§1) The methods for [^3H]-DNM accumulation and efflux studies were reported previously. […] The experiments were performed in triplicate.
(§2) [^3H]-DNM uptake and efflux were determined after the incubation with each derivative (100 µM) for 2 h and 1 h, respectively. […] Control represents accumulation or efflux of tritium labeled DNM alone.

MCF-7/ADR cells [5] = assay: [3H]-daunomycin accumulation study; format: cell-based, human; conditions: 100 µM, 2 h incubation, mean ± SD, triplicate
Method: as §1, §2

human P-gp membranes = biological target: T1, human P-gp membranes (Homo sapiens, UniProt P08183); assay: Human P-glycoprotein ATPase activity assay; format: biochemical; conditions: for P-gp ATPase activity, ratio of blank (control): human P-gp membranes
T1 construct: purchased
Method: The ATPase activities were expressed as the rate of phosphate release per milligram of membrane protein and converted to the relative ratio versus the control. This assay was performed in duplicate.

[6] = design: method as in PMID 24373826; conditions: rats; cited from earlier work
[7] = design: method as in PMID 24373826; conditions: humans; cited from earlier work
[8] = 100 µM, 1 h incubation, mean ± SD, triplicate

T1 sequence (P08183 whole entry): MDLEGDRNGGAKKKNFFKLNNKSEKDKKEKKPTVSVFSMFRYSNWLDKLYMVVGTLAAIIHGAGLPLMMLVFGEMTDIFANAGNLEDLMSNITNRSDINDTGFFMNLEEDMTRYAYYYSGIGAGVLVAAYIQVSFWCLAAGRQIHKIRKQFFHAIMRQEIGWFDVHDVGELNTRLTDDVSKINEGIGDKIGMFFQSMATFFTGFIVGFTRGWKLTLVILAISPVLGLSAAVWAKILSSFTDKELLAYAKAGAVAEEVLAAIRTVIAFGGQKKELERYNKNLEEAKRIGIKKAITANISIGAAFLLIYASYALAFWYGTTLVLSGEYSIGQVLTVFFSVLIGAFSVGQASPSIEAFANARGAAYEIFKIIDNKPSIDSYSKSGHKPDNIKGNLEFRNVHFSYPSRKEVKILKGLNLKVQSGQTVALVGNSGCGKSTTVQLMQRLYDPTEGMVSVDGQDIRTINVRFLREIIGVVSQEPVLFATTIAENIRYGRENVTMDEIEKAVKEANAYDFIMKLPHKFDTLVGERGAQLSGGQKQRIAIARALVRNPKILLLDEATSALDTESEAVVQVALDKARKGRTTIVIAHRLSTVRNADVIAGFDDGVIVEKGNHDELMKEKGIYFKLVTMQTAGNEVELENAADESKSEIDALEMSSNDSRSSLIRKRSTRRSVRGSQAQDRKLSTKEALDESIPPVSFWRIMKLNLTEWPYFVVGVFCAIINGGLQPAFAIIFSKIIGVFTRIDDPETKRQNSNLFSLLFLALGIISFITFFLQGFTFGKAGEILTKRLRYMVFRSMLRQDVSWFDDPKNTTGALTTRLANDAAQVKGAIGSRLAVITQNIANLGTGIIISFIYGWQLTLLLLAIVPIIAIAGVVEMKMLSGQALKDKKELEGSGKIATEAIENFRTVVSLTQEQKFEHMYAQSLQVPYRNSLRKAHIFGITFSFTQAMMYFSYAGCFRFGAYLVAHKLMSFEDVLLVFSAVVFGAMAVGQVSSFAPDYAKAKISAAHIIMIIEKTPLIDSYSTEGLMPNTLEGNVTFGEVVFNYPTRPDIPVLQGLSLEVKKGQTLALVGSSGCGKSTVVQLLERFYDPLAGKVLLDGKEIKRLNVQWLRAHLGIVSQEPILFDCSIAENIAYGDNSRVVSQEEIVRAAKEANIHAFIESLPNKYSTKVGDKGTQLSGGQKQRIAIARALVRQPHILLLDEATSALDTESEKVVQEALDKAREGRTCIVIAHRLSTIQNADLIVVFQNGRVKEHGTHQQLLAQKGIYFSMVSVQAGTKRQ

Row | SMILES | P-gp ATPase activity, ratio of blank (control) (human P-gp membranes; 20 μM) | P-gp ATPase activity, ratio of blank (control) (human P-gp membranes; 50 μM) | P-gp ATPase activity, ratio of blank (control) (human P-gp membranes; 100 μM) | melting point | viability at 5 µM (MCF-7/ADR cells [1]) | viability at 10 µM (MCF-7/ADR cells [1]) | viability at 25 µM (MCF-7/ADR cells [1]) | viability at 50 µM (MCF-7/ADR cells [1]) | viability at 100 µM (MCF-7/ADR cells [1]) | IC50 of DNM as fraction of negative control (DNM alone) value (MCF-7/ADR cells [3]) | also measured
1 | COc1cccc2c1C(=O)c1c(O)c3c(c(O)c1C2=O)C[C@@](O)(C(C)=O)C[C@@H]3O[C@H]1C[C@H](N)[C@H](O)[C@H](C)O1 [DNM, daunomycin, reference compound] | – | – | – | – | – | – | – | – | – | – | IC50 (MCF-7/ADR cells [3]; Homo sapiens, NCI/ADR-RES, negative control: DNM alone, incubation): 31.7 µM; efflux of [3H]-DNM (MCF-7/ADR cells [4]; control: tritium labeled DNM alone, 1 h): 63.0 ± 3.3%
2 | COc1cc(/C=C/C(=O)N(C)C)ccc1OCC(C)C [Compound 5e, (E)-3-(4-isobutoxy-3-methoxyphenyl)-N,N-dimethylacrylamide] | – | – | – | 109 to 111 °C | 100% | 99.4% | 95.8% | 95% | 94.8% | – | efflux of [3H]-DNM (MCF-7/ADR cells [4]; [8]): 39.9 ± 3.8%; accumulation of [3H]-DNM (MCF-7/ADR cells [5]): 382.1 ± 20.4%
3 | CC(=O)O[C@H]1C(=O)[C@@]2(C)[C@H]([C@H](OC(=O)c3ccccc3)[C@]3(O)C[C@H](OC(=O)[C@H](O)[C@@H](NC(=O)c4ccccc4)c4ccccc4)C(C)=C1C3(C)C)[C@]1(OC(C)=O)CO[C@@H]1C[C@@H]2O [PTX, Paclitaxel] | – | – | – | – | – | – | – | – | – | – | Cl/F of PTX ([2]; PTX 25 mg/kg PO alone, rats): 8.22 ± 1.84 L/h; Cmax of PTX ([2]; PTX 25 mg/kg PO alone, rats): 187 ± 41 ng/mL; AUC(0-inf) ([2]; male, Sprague-Dawley, rat, plasma, PTX 25 mg/kg PO alone, rats, read-out: AUCinf of PTX): 773 ± 169 ng·h/mL; Vd/F ([2]; male, Sprague-Dawley, rat, plasma, PTX 25 mg/kg PO alone, rats, read-out: Vz/F of PTX): 35.1 ± 16.8 L; half-life ([2]; male, Sprague-Dawley, rat, plasma, PTX 25 mg/kg PO alone, rats, read-out: t1/2 of PTX (converted)): 2.8 ± 0.86 h
4 | COc1cc(/C=C/C(=O)O)ccc1O [FA, Ferulic acid] | – | – | – | – | – | – | – | – | – | – | Time within which FA is absorbed in the intestine [6]: 5 to 15 min; Time within which FA is absorbed in the intestine [7]: ≤ 30 min
5 | COc1cc(/C=C/C(=O)N2CCCCC2)ccc1OCC(C)C [Compound 5b, (E)-3-(4-isobutoxy-3-methoxyphenyl)-1-(piperidin-1-yl)prop-2-en-1-one] | – | – | – | 96 to 97 °C | 101% | 97.8% | 96.1% | 96.1% | 92% | – | –

More lines, main results first:

Row | P-gp ATPase activity, ratio of blank (control) (human P-gp membranes; 20 μM) | P-gp ATPase activity, ratio of blank (control) (human P-gp membranes; 50 μM) | P-gp ATPase activity, ratio of blank (control) (human P-gp membranes; 100 μM) | melting point | SMILES | viability at 5 µM (MCF-7/ADR cells [1]) | viability at 10 µM (MCF-7/ADR cells [1]) | viability at 25 µM (MCF-7/ADR cells [1]) | viability at 50 µM (MCF-7/ADR cells [1]) | viability at 100 µM (MCF-7/ADR cells [1]) | IC50 of DNM as fraction of negative control (DNM alone) value (MCF-7/ADR cells [3]) | also measured
6 | 1.54 | 2.48 | 4.02 | – | COc1cc(/C=C/C(=O)N2CCCCC2)ccc1OCc1ccccc1 [Compound 5c, (E)-3-(4-benzyloxy-3-methoxyphenyl)-1-(piperidin-1-yl)prop-2-en-1-one] | 101% | 98.5% | 96.1% | 96.9% | 87.6% | about 1/5 | Cl/F of PTX ([2]; PTX 25 mg/kg PO co-administered with compound 5c 2 mg/kg, rats): 4.10 ± 1.53 L/h; Cl/F of PTX ([2]; PTX 25 mg/kg PO co-administered with compound 5c 5 mg/kg, rats): 4.53 ± 1.04 L/h; Effect on PK parameters of PTX ([2]; compound 5c 0.5 mg/kg co-administered, compared to PO control (PTX alone)): did not alter any PK parameters of PTX; Improvement of the BA of PTX ([2]; compound 5c 5 mg/kg co-administered with PTX in rats): approximately twofold; efflux of [3H]-DNM (MCF-7/ADR cells [4]; [8]): 43.1 ± 4.6%; accumulation of [3H]-DNM (MCF-7/ADR cells [5]): 438.4 ± 4.9%; Concentration dependence of P-gp ATPase activity (human P-gp membranes; 20, 50 and 100 μM): stably increased ATPase activity in a concentration-dependent manner
7 | 3.99 | 2.69 | 2.79 | 163 to 164 °C | CCCOc1ccc(/C=C/C(=O)N2CCC(O)(c3ccccc3)CC2)cc1OC [Compound 5h, (E)-1-(4-hydroxy-4-phenylpiperidin-1-yl)-3-(3-methoxy-4-propoxyphenyl) prop-2-en-1-one] | 103% | 99.2% | 94.6% | 89.4% | 89.6% | about 1/5 | efflux of [3H]-DNM (MCF-7/ADR cells [4]; [8]): 43.3 ± 0.9%; accumulation of [3H]-DNM (MCF-7/ADR cells [5]): 426.1 ± 26.2%
8 | – | – | – | 91 to 92 °C | CCCOc1ccc(/C=C/C(=O)N2CCCCC2)cc1OC [Compound 5a, (E)-3-(3-methoxy-4-propoxyphenyl)-1-(piperidin-1-yl)prop-2-en-1-one] | 96.5% | 94.1% | 96% | 93.8% | 87.8% | – | –
9 | 2.85 | 3.12 | 3.35 | – | CCCOc1ccc(/C=C/C(=O)N(C)Cc2ccccc2)cc1OC [Compound 5f, (E)-N-benzyl-3-(3-methoxy-4-propoxyphenyl)-N-methylacrylamide] | 98.9% | 99.4% | 100% | 96.9% | 92.8% | about 1/5 | –
10 | – | – | – | 108 to 109 °C | CCCOc1ccc(/C=C/C(=O)N(C)C)cc1OC [Compound 5d, (E)-3-(3-methoxy-4-propoxyphenyl)-N,N-dimethylacrylamide] | 102% | 97.8% | 97.1% | 97.1% | 96.2% | – | –
11 | 1.26 | 1.77 | 5.19 | 135 to 136 °C | COc1cc(/C=C/C(=O)N(C)C)ccc1OCc1ccccc1 [Compound 5g, (E)-3-(4-benzyloxy-3-methoxyphenyl)-N,N-dimethylacrylamide] | 104% | 102% | 100% | 99.3% | 102% | about 1/5 | –
